Data reported in patent US10934297B2, “5-heteroaryl substituted indazole-3-carboxamides and preparation and use thereof” (Samumed, LLC, priority 2018, dated 2021).

What was measured:
[1] = tested on: Wnt activity (Sp5-Luc reporter in SW480 cells); assay: Screening assay for Wnt activity: Sp5-Luc reporter gene assay in SW480 colon carcinoma cells; type: cell-based, human; conditions: Homo sapiens, 36 to 48 hours
Text: The screening assay for Wnt activity is described as follows. Reporter cell lines can be generated by stably transducing cancer cell lines (e.g., colon cancer) or primary cells (e.g., IEC-6 intestinal cells) with a lentiviral construct that includes a Wnt-responsive promoter driving expression of the firefly luciferase gene.
SW480 colon carcinoma cells were transduced with a lentiviral vector expressing luciferase with a human Sp5 promoter consisting of a sequence of eight TCF/LEF binding sites. SW480 cells stably expressing the Sp5-Luc reporter gene and a hygromycin resistance gene were selected by treatment with 150 μg/mL of hygromycin for 7 days. These stably transduced SW480 cells were expanded in cell culture and used for all further screening activities. […] For Sp5-Luc reporter gene assays, the cells were plated at 4,000 cells/well in 384-well plates with a DMEM medium containing 1% fetal bovine serum, and 1% Penicillin-Streptomycin and incubated for 36 to 48 hours at 37° C. and 5% CO2. Following incubation, 15 μl of BriteLite Plus luminescence reagent (Perkin Elmer) was added to each well of the 384-well assay plates. The plates were placed on an orbital shaker for 2 min and then luminescence was quantified using the Envision (Perkin Elmer) plate reader. Readings were normalized to DMSO only treated cells, and normalized activities were utilized for EC50 calculations using the dose-response log (inhibitor) vs. response-variable slope (four parameters) nonlinear regression feature available in GraphPad Prism 5.0 (or Dotmatics).

[2] = biological target: DYRK1A kinase (Homo sapiens (Human), UniProt Q13627); assay: DYRK1A kinase assay (Ser/Thr 18 peptide Z-lyte FRET); type: biochemical; conditions: read-out: EC50 (method: IC50)
Procedure: Representative compounds were screened using the assay procedure for DYRK1A kinase activity as described below.
This is a non-radioactive assay using fluorescence resonance energy transfer (FRET) between coumarin and fluorescein to detect kinase activity which is represented as a ratio of coumarin emission/fluorescein emission.
The mixture was allowed to incubate with the representative compounds for one hour at room temperature. All reactions were performed in duplicate. Unphosphorylated (“0% Control”) and phosphorylated (“100% control”) forms of Ser/Thr 18 served as control reactions. Additionally, an 11-point dose-response curve of Staurosporine (1 uM top) was run to serve as a positive compound control.
After incubation, Development Reagent A was diluted in Development Buffer then added to the reaction and allowed to further incubate for one hour at room temperature.

[3] = biological target: GSK3β kinase (Homo sapiens (Human), UniProt P49841); assay: GSK3β kinase assay (Ser/Thr 09 peptide Z-lyte FRET); type: biochemical; conditions: read-out: EC50 (method: IC50)
GSK3β kinase, sequence (P49841 whole entry): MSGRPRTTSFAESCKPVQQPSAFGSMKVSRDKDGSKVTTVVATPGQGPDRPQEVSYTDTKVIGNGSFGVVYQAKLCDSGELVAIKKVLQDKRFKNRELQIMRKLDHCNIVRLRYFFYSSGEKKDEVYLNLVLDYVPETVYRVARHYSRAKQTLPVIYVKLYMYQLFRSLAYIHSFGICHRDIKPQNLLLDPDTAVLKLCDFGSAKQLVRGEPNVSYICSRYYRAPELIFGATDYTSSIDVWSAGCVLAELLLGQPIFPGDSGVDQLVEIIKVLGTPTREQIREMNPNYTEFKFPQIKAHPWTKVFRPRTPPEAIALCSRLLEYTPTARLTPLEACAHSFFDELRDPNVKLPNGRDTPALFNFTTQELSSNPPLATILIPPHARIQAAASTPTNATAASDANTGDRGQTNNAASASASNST
Procedure: Representative compounds were screened using the assay procedure for GSK3β kinase activity as described below.
This is a non-radioactive assay using fluorescence resonance energy transfer (FRET) between coumarin and fluorescein to detect kinase activity which is represented as ratio of coumarin emission/fluorescein emission.
The mixture is allowed to incubate with the representative compounds for one hour at room temperature. All reactions were performed in duplicate. Unphosphorylated (“0% Control”) and phosphorylated (“100% control”) forms of Ser/Thr 18 serve as control reactions.
After incubation, diluted Development Buffer is added to the reaction and allowed to further incubate for one hour at room temperature.
Dose-response curves are generated and inhibitory concentration (IC50) values are calculated using non-linear regression curve fit in the Dotmatics' Studies Software (Bishops Stortford, UK).

[4] = tested on: SW480 colon carcinoma cells; assay: Cell viability assay (CellTiter-Glo) in SW480 colon carcinoma cells; type: cell-based, human; conditions: Homo sapiens, 96 h, four days
Procedure: Representative compounds were screened using the assay procedure to assess the effect on cell viability as described below.
SW480 colon carcinoma cells were transduced with a lentiviral vector expressing luciferase with a human Sp5 promoter consisting of a sequence of eight TCF/LEF binding sites. SW480 cells stably expressing the Sp5-Luc reporter gene and a hygromycin resistance gene were selected by treatment with 150 μg/mL of hygromycin for 7 days. These stably transduced SW480 cells were expanded in cell culture and used for all further screening activities.
For the Cell Viability Assays, the cells were plated at 2,000 cells/well in 384-well plates with a DMEM medium containing 1% fetal bovine serum, and 1% Penicillin-Streptomycin and incubated for […] at 37° C. and 5% CO2. Eight replicates of DMSO-treated cells served as controls and cells treated with compound were performed in duplicate.
After incubation, 10 μL of CellTiter-Glo (Promega) was added to each well allowed to incubate for approximately 12 minutes. This reagent “results in cell lysis and generation of a luminescent signal proportional to the amount of ATP present. The amount of ATP is directly proportional to the number of cells present in culture, in agreement with previous reports. The CellTiter-Glo® Assay generates a “glow-type” luminescent signal, produced by the luciferase reaction (Promega.com)”.

[5] = tested on: primary human fibroblasts derived from IPF patients (LL29 cells); assay: Inhibition of the fibrotic process: αSMA staining in TGF-β1 treated LL29 fibroblasts; type: cell-based; conditions: Homo sapiens, Fibroblast, 96 h; LL29 cells, TGF-β1 20 ng/mL, 4 days, % αSMA positive cells
Procedure: Representative compounds were screened using primary human fibroblasts (derived from IPF patients) treated with TGF-β1 to determine their ability to inhibit the fibrotic process.
LL29 cells were plated at 1,500 cells/well in 70 μL/well F12 medium supplemented with 1% Fetal Bovine Serum. […] Wells treated with TGF-β1 and containing DMSO were used as positive control, and cells with only DMSO were negative control. […] Following incubation for 4 days, SYTOX green nucleic acid stain (Life Technologies [Thermo Fisher Scientific]) was added to the wells at a final concentration of 1 μM and incubated at room temperature for 30 min.

[6] = tested on: IL-6; assay: IL-6 inhibition in LPS-stimulated human peripheral blood mononuclear cells (HTRF); type: cell-based; conditions: Homo sapiens, PBMC; for EC50: huPBMCs, LPS 50 ng/mL, 22 hours, IL-6 HTRF; for inhibition at 10 µM: read-out: percent inhibition at 10 μM
Procedure: Fresh Normal PB MNC (Catalog #PB001, AllCells, Alameda, Calif.) were shipped overnight at 4° C. and resuspended in Roswell Park Memorial Institute (RPMI) 1640 Medium, with GlutaMAX Supplement (Catalog #61870127, ThermoFisher Scientific, Waltham, Mass.) supplemented with 1% Penicillin-Streptomycin (Catalog #15140163. ThermoFisher Scientific, Waltham, Mass.) and 1% fetal bovine serum (FBS) (Catalog #16140089, ThermoFisher Scientific, Waltham, Mass.) assay media. Fresh normal human peripheral blood mononuclear cells (huPBMCs) were resuspended in 1% FBS-RPMI assay media with 1% Penicillin-Streptomycin 1% to a cell concentration of 1×10e6 cells/mL. […] 50 ng/mL of Lipopolysaccharides from Escherichia coli 0111:B4 (Catalog #L5293-2ML, Sigma-Aldrich, St. Louis, Mo.) was added after 2 hours and cells were incubated for another 22 hours at 37° C.-5% CO2. After 22 hour incubation, a mixture of anti-IL6 XL665 and anti-IL-6 Cryptate diluted in reconstitution buffer (Catalog #62IL6PEC, Cisbio Inc., Bedford, Mass.) was added to each well. Following incubation for 3 hours at room temperature, Homogeneous Time-Resolved Fluorescence (HTRF) was measured using the Envision (Perkin Elmer, Shelton, Conn.) at 665 nm and […]. The ratio of fluorescence at 665 nm to 620 nm was used as a readout for IL-6 quantification. All samples were processed in duplicate. Readings were normalized to DMSO treated cells and normalized activities were utilized for EC50 calculations.

| Structure (SMILES) | EC50 [1] | IC50 [2] | IC50 [3] | EC50 [4] | EC50 [6] | EC50 [5] | inhibition at 10 µM [6] |
| --- | --- | --- | --- | --- | --- | --- | --- |
| Cn1cc(-c2cc3c(C(=O)NC4CCC(F)(F)CC4)n[nH]c3cc2F)cn1 [Compound 15, N-(4,4-Difluorocyclohexyl)-6-fluoro-5-(1-methyl-1H-pyrazol-4-yl)-1H-indazole-3-carboxamide] | > 10 µM | 0.036 µM | 0.058 µM | 2.6 µM | 3.55 µM | 3.32 µM |  |
| O=C(NC1CCC(F)(F)CC1)c1n[nH]c2ccc(-c3cnn(C4CC4)c3)cc12 [Compound 19, 5-(1-Cyclopropyl-1H-pyrazol-4-yl)-N-(4,4-difluorocyclohexyl)-1H-indazole-3-carboxamide] | 1.05 µM | 0.117 µM | 0.064 µM | 3.07 µM | 3.68 µM | 1.18 µM |  |
| Cn1cc(-c2ccc3[nH]nc(C(=O)N[C@H]4CC[C@H](CN5CC(F)C5)CC4)c3c2)cn1 [Compound 23, N-((1R,4R)-4-((3-Fluoroazetidin-1-yl)methyl)cyclohexyl)-5-(1-methyl-1H-pyrazol-4-yl)-1H-indazole-3-carboxamide] | 0.768 µM | 0.001 µM | 0.005 µM | 0.409 µM | 0.345 µM | 0.149 µM |  |
| Cn1cc(-c2cc3c(C(=O)N[C@H]4CC[C@H](CN5CC(F)C5)CC4)n[nH]c3cc2F)cn1 [Compound 24, 6-fluoro-N-((1R,4R)-4-((3-fluoroazetidin-1-yl)methyl)cyclohexyl)-5-(1-methyl-1H-pyrazol-4-yl)-1H-indazole-3-carboxamide] | 1.34 µM | 0.002 µM | 0.022 µM | 0.829 µM | 0.419 µM | 0.125 µM |  |
| O=C(N[C@H]1CC[C@H](CN2CC(F)C2)CC1)c1n[nH]c2ccc(-c3cnn(C4CC4)c3)cc12 [Compound 26, 5-(1-Cyclopropyl-1H-pyrazol-4-yl)-N-((1R,4R)-4-((3-fluoroazetidin-1-yl)methyl)cyclohexyl)-1H-indazole-3-carboxamide] | 1.18 µM | 0.005 µM | 0.034 µM | 0.849 µM | 1.04 µM | > 10 µM |  |
| O=C(N[C@H]1CC[C@H](CN2CC(F)C2)CC1)c1n[nH]c2ccc(-c3cnn4c3CCCC4)cc12 [Compound 27, N-((1R,4R)-4-((3-Fluoroazetidin-1-yl)methyl)cyclohexyl)-5-(4,5,6,7-tetrahydropyrazolo[1,5-a]pyridin-3-yl)-1H-indazole-3-carboxamide] | 0.677 µM | 0.004 µM | 0.012 µM | 6.45 µM | 3.82 µM | 0.346 µM |  |
| Cn1cc(-c2ccc3[nH]nc(C(=O)N[C@H]4CC[C@H](CN5CCCC5)CC4)c3c2)cn1 [Compound 28, 5-(1-Methyl-1H-pyrazol-4-yl)-N-((1R,4R)-4-(pyrrolidin-1-ylmethyl)cyclohexyl)-1H-indazole-3-carboxamide] | 0.688 µM | 0.002 µM | 0.011 µM | 0.442 µM | 0.401 µM | 0.409 µM |  |
| CC(C)CN1CC[C@@H](NC(=O)c2n[nH]c3ccc(-c4cnn(C)c4)cc23)[C@@H](F)C1 [Compound 31, N-((3S,4R)-3-Fluoro-1-isobutylpiperidin-4-yl)-5-(1-methyl-1H-pyrazol-4-yl)-1H-indazole-3-carboxamide] | 0.61 µM | 0.026 µM | 0.055 µM | > 10 µM | 4.26 µM | 2.46 µM |  |
| CC(C)CN1CC[C@@H](NC(=O)c2n[nH]c3ccc(-c4cnn(C)c4)cc23)[C@H](F)C1 [Compound 32, N-((3R,4R)-3-Fluoro-1-isobutylpiperidin-4-yl)-5-(1-methyl-1H-pyrazol-4-yl)-1H-indazole-3-carboxamide] | 1.83 µM | 0.005 µM | 0.031 µM | 1.32 µM | 1.27 µM | 0.372 µM |  |

Further lines, with some results ahead:

| EC50 [1] | IC50 [2] | IC50 [3] | EC50 [4] | EC50 [6] | Structure (SMILES) | EC50 [5] | inhibition at 10 µM [6] |
| --- | --- | --- | --- | --- | --- | --- | --- |
| 0.801 µM | 0.121 µM | 0.06 µM | 7.46 µM | 3.82 µM | CCn1cc(-c2ccc3[nH]nc(C(=O)NC4CCC(F)(F)CC4)c3c2)cn1 [Compound 18, N-(4,4-Difluorocyclohexyl)-5-(1-ethyl-1H-pyrazol-4-yl)-1H-indazole-3-carboxamide] | 0.95 µM |  |
| > 10 µM | 0.013 µM | 0.021 µM | > 10 µM | > 10 µM | Cc1c(-c2ccc3[nH]nc(C(=O)NC4CCC(F)(F)CC4)c3c2)cnn1C [Compound 20, N-(4,4-Difluorocyclohexyl)-5-(1,5-dimethyl-1H-pyrazol-4-yl)-1H-indazole-3-carboxamide] | 3.41 µM | 36.4% |
| > 10 µM | 1.82 µM | 0.903 µM | > 10 µM | > 10 µM | Cc1nn(C)cc1-c1ccc2[nH]nc(C(=O)NC3CCC(F)(F)CC3)c2c1 [Compound 21, N-(4,4-Difluorocyclohexyl)-5-(1,3-dimethyl-1H-pyrazol-4-yl)-1H-indazole-3-carboxamide] | 0.294 µM | 15.5% |
| 2.01 µM | 0.025 µM | 0.061 µM | > 10 µM | > 10 µM | Cc1ncc(-c2ccc3[nH]nc(C(=O)NC4CCC(F)(F)CC4)c3c2)n1C [Compound 22, N-(4,4-Difluorocyclohexyl)-5-(1,2-dimethyl-1H-imidazol-5-yl)-1H-indazole-3-carboxamide] | 2.2 µM | 10.2% |
